Assay results as given in the supplement of paper PMC13380429.

Assays:
Settings in all cases: 72 h
Caco-2 [1] = assay: cell viability relative to DMSO; higher = less toxic
Calu-3 [2] = assay: as above
U2OS [3] = assay: as above
Vero E6 [4] = assay: as above
Caco-2 [5] = assay: relative viability EC50 (midpoint between 100% and the lowest measured viability); higher = less toxic
Calu-3 [6] = assay: as above
U2OS [7] = assay: as above
Vero E6 [8] = assay: as above
Caco-2 [9] = assay: drug sensitivity score (DSS) for viability; higher = more toxic; extreme values may be limits of the assay
Calu-3 [10] = assay: as above
U2OS [11] = assay: as above
Vero E6 [12] = assay: as above
HepG2 [13] = assay: cell viability relative to DMSO; higher = less toxic
HepG2 [14] = assay: relative viability EC50 (midpoint between 100% and the lowest measured viability); higher = less toxic
HepG2 [15] = assay: drug sensitivity score (DSS) for viability; higher = more toxic; extreme values may be limits of the assay

SMILES	cell viability (Caco-2 [1]; 1 nM) [%]	cell viability (Caco-2 [1]; 10 nM) [%]	cell viability (Caco-2 [1]; 100 nM) [%]	cell viability (Caco-2 [1]; 1000 nM) [%]	cell viability (Caco-2 [1]; 10000 nM) [%]	cell viability (Calu-3 [2]; 1 nM) [%]	cell viability (Calu-3 [2]; 10 nM) [%]	cell viability (Calu-3 [2]; 100 nM) [%]	cell viability (Calu-3 [2]; 1000 nM) [%]	cell viability (Calu-3 [2]; 10000 nM) [%]	cell viability (U2OS [3]; 1 nM) [%]	cell viability (U2OS [3]; 10 nM) [%]	cell viability (U2OS [3]; 100 nM) [%]	cell viability (U2OS [3]; 1000 nM) [%]	cell viability (U2OS [3]; 10000 nM) [%]	cell viability (Vero E6 [4]; 1 nM) [%]	cell viability (Vero E6 [4]; 10 nM) [%]	cell viability (Vero E6 [4]; 100 nM) [%]	cell viability (Vero E6 [4]; 1000 nM) [%]	cell viability (Vero E6 [4]; 10000 nM) [%]	relative viability EC50 (Caco-2 [5]) [µM]	relative viability EC50 (Calu-3 [6]) [µM]	relative viability EC50 (U2OS [7]) [µM]	relative viability EC50 (Vero E6 [8]) [µM]	drug sensitivity score (Caco-2 [9])	drug sensitivity score (Calu-3 [10])	drug sensitivity score (U2OS [11])	drug sensitivity score (Vero E6 [12])	cell viability (HepG2 [13]; 1 nM) [%]	cell viability (HepG2 [13]; 10 nM) [%]	cell viability (HepG2 [13]; 100 nM) [%]	cell viability (HepG2 [13]; 1000 nM) [%]	cell viability (HepG2 [13]; 10000 nM) [%]	relative viability EC50 (HepG2 [14]) [µM]	drug sensitivity score (HepG2 [15])
COc1cc(OC)c(OC)cc1C=O [asaraldehyde]	95.2	102	94.8	104	90.1	87	108	90.5	107	88.3	97.3	103	97.7	105	99	108	100	98.6	103	102	> 10	> 10	> 10	> 10	0	0	0	0							
C[N+](C)(C)CCOP(=O)(O)OC[C@H](O)CO [choline-alfoscerate]	106	101	100	100	102	99.9	98	91.2	96.3	102	105	102	101	99.4	98						> 10	> 10	> 10		0	0	0								
O=C(O[C@@H]1Cc2c(O)cc(O)cc2O[C@@H]1c1ccc(O)c(O)c1)c1cc(O)c(O)c(O)c1 [epicatechin-gallate-(-)]	99.7	93.6	87.7	92	100	107	102	93.2	91	104	97.7	97.5	103	97.2	101	105	102	99	96.1	99	> 10	> 10	> 10	> 10	0	0	0	0							
CC(C)OC(=O)C(C)(C)Oc1ccc(C(=O)c2ccc(Cl)cc2)cc1 [fenofibrate]						103	111	102	36.9	94.5	100	100	98.4	95.7	92.6							> 10	> 10			0	0								
CCCCCCCC/C=C/CCCCCCCC(=O)OC[C@H]1O[C@@H](n2ccc(N)nc2=O)C(F)(F)[C@@H]1O [gemcitabine-elaidate]	95.3	96.1	79.7	68.5	67.6	106	90.1	69.1	57.8	35.2	105	110	70.2	77	70.7	105	104	55.6	61.5	58.3		0.179			7.6	12.3	8.2	13.4	104	57.6	36.5	35.8	38.5	0.0077	25.2
CC(C(=O)O)c1ccc(N2Cc3ccccc3C2=O)cc1 (stereo not given) [indoprofen]	91.9	97.8	99.5	96.5	93.8	84.3	104	97.1	92.9	94.1	95.8	97.6	103	100	102	95.9	99.6	97.8	99.4	105	> 10	> 10	> 10	> 10	0	0	0	0							
c1ccc(Cn2c(N3CCNCC3)nc3ccccc32)cc1 [lerisetron]	100	98.6	104	98.9	96.5	97.6	95.8	100	98	96.3	99.2	95.4	105	98.1	99.9	103	100	99.4	98.7	96.6	> 10	> 10	> 10	> 10	0	0	0	0							
CCCc1nc(C(C)(C)O)c(C(=O)OCc2oc(=O)oc2C)n1Cc1ccc(-c2ccccc2-c2nnn[nH]2)cc1 [olmesartan-medoxomil]	92.8	96	97.5	91.4	99.3	91.5	92.9	100	94.3	104	95.3	93.7	99.6	96.3	99.2	97.6	99.2	94.6	89	115	> 10	> 10	> 10	> 10	0	0	0	0							
CC(C)(CO)[C@@H](O)C(=O)NCCC(=O)O [pantothenic-acid]	101	97.3	96.7	94.8	66.4	99.6	97.7	106	87.8	103	95.9	91.4	101	92.3	97.4	100	103	95	98.5	94		> 10	> 10	> 10	2.4	0	0	0							
CC(CCc1ccc(O)cc1)NCC(O)c1ccc(O)cc1 (stereo not given) [ractopamine]	91.9	84.6	104	110	114	92.8	87.2	101	94.4	115	100	98.1	99.1	99.2	101	115	102	101	99.3	104	> 10	> 10	> 10	> 10	0	0	0	0							
C[C@]12CC[C@H](O)C[C@H]1CC[C@@H]1[C@@H]2CC[C@]2(C)[C@@](O)(c3ccoc3)CC[C@]12O [rostafuroxine]	103	98	99.7	97.8	109	96.4	88.4	103	94.7	99.6	102	98.6	101	101	101	103	102	99.2	96.1	99.7	> 10	> 10	> 10	> 10	0	0	0	0							
NCCc1c[nH]c2ccc(O)cc12 [serotonin]	96.8	89.1	102	90.2	89.5						91.3	95.8	94.3	97.3	92.9	107	102	103	98.9	101	> 10		> 10	> 10	0		0	0	89.2	91.4	94.3	88.4	107	> 10	0
Cc1nc(-c2cn3c(n2)-c2ccc(-c4cnn(C(C)(C)C(N)=O)c4)cc2OCC3)n(C(C)C)n1 [taselisib]	106	99.6	90.8	59.4	32.4	99.2	88.1	63.6	36	24	102	97.3	90.4	70.3	57.2	106	106	97.3	85	62.6	0.649	0.107			8.9	16.9	6.2	3.5	97.4	84.8	70.3	62.7	52		11.6
COc1ccc2[nH]c([S+]([O-])Cc3ncc(C)c(OC)c3C)nc2n1 (stereo not given) [tenatoprazole]						109	114	103	96.6	105												> 10				0			101	113	104	106	97.7	> 10	0
O=c1oc2cc(O)ccc2s1 [tioxolone]	90.6	97.9	88.6	107	77.2	99.8	102	97.8	98.5	64.3	96.2	103	100	104	95.6	101	98.1	99.9	94.2	101	> 10		> 10	> 10	0.5	1.9	0	0	104	90.4	96	93.7	104	> 10	0
CC(C(=O)O)c1ccc2c(c1)CC(=O)c1ccccc1S2 (stereo not given) [zaltoprofen]	99.7	93.8	98.4	106	101						99.9	97.3	99.6	98.1	101	93.8	101	90.9	100	104	> 10		> 10	> 10	0		0	0	95.5	103	101	110	111	> 10	0
OCCN1CCN(CC/C=C2/c3ccccc3Sc3ccc(Cl)cc32)CC1 [zuclopenthixol]	105	80.8	92.8	94.8	82	95.1	93.9	98.9	91.9	47.9	99.6	96	99.6	97.1	79.2	95.2	95	93	93.7	79.2	> 10	1.95	> 10	> 10	0.8	4.1	1.1	0.8	93.4	101	89.9	98.6	66		1.8
